Experimental data as given in PMC11047712, “Synergistic Antioxidant and Anti-Inflammatory Effects of Phenolic Acid-Conjugated Glutamine–Histidine–Glycine–Valine (QHGV) Peptides Derived from Oysters (Crassostrea talienwhanensis)” (Antioxidants, 2024).

Legend:
[1] = ABTS radical scavenging activity test; format: biochemical; details: for ABTS radical scavenging activity: 0.01 mM, n = 3; for ABTS radical scavenging activity / IC50: 5 min at room temperature, absorbance 734 nm; for Anti-oxidant Rank (ABTS radical scavenging activity rank) / IC50: Table S1; for Anti-oxidant Rank (ABTS radical scavenging activity rank): rank by IC50, 1 = most active; for IC50: tested 0.000001-1 mM, calculated by GraphPad Prism 5, unit inferred
Method: The ABTS radical cation solution was prepared by mixing 1 mL of a 14 mM ABTS solution and 1 mL of 4.9 mM potassium persulfate. The mixture reacted in the dark at room temperature for 16 h. The ABTS solution was diluted with PBS (1:50, v/v), and 190 μL of it reacted with 10 μL of the sample solution in a 96-well plate at room temperature for 5 min. The absorbance at 734 nm was measured using a SpectraMax iD3 microplate reader (Molecular Devices, San Jose, CA, USA), and the ABTS radical scavenging activity rate was calculated using the following equation:ABTS radical scavenging activity (%) = 1 − (absorbance of sample/absorbance of water) × 100

[2] = DPPH radical scavenging activity test; format: biochemical; details: various concentrations; 0.1 mM DPPH, 30 min in the dark at room temperature, absorbance 517 nm
Method: The DPPH method is based on a mechanism similar to the ABTS method. […] In a 96-well plate, 100 μL of the DPPH solution and 100 μL of the sample were treated and incubated at room temperature in the dark for 30 min. Absorbance at 517 nm was then measured using a SpectraMax iD3 microplate reader (Molecular Devices, San Jose, CA, USA). The solvents used for the samples were methanol for peptide samples and ethanol for phenolic acid samples.

[3] = tested on: inducible nitric oxide synthase (iNos) mRNA; test: iNos mRNA expression in LPS-induced RAW 264.7 cells (qRT-PCR); format: cell-based, murine; details: peptide 500 μM pretreated 2 h, LPS 0.1 μg/mL 24 h, normalized to Gapdh, n = 3
Method: (§2) The peptide and control groups were pretreated with 500 and 0 μM of the peptide solution, respectively, for 2 h, followed by stimulation with 0.1 μg/mL of LPS for 24 h. Total cellular RNA was isolated using the RNeasy Mini Kit (Qiagen, Santa Clara, CA, USA). Total RNA was used to synthesize complementary DNA (cDNA) using the PrimeScript™ 1st strand cDNA synthesis kit (TaKaRa, Kusatsu, Japan). […] The mRNA levels of iNos, Cox-2, and Col1a1 were normalized to that of Gapdh, which is a housekeeping gene. The mRNA levels were quantified using the 2^-ddCt method based on the Ct values.

[4] = tested on: cyclooxygenase-2 (Cox-2) mRNA; test: Cox-2 mRNA expression in LPS-induced RAW 264.7 cells (qRT-PCR); format: cell-based, murine; details: peptide 500 μM pretreated 2 h, LPS 0.1 μg/mL 24 h, normalized to Gapdh, n = 3
Method: as §2

[5] = tested on: HaCaT cells; test: Cell viability (MTT assay) in HaCaT cells; format: cell-based, human; details: 0.032-500 µM, 24 h
Method: Cell viability was assessed using an MTT assay. HaCaT cells (1.0 × 10^4 cells/mL) were seeded in a 96-well plate and cultured for 24 h. Thereafter, the cells were treated with the peptide solution (0–500 µM) for 24 h. […] The MTT solution was prepared by dissolving it in phosphate-buffered saline (PBS) at a concentration of 5 mg/mL. 10 μL of the prepared MTT solution was added to each well, and the plate was incubated for 4 h. After removing the culture medium, 200 μL of dimethyl sulfoxide (DMSO) was added to each well to solubilize any deposited formazan. The absorbance at 560 nm was measured using an Epoch microplate Spectrophotometer (BioTek, Winooski, VT, USA).

[6] = tested on: intracellular ROS in RAW 264.7 cells; test: LPS-induced intracellular ROS, DCFH-DA fluorescence, in RAW 264.7 cells; format: cell-based, murine; details: peptides and carnosine 500 μM pretreated 2 h, then LPS 0.1 μg/mL 24 h, n = 3
Method: RAW 264.7 cells (7.5 × 10^4 cells/mL) were seeded on sterile cover slips placed in the wells of a 12-well plate and cultured for 24 h. The cells were pretreated with peptide solutions (500 μM) and carnosine (500 μM) for 2 h and stimulated with LPS (0.1 μg/mL) for 24 h. Subsequently, they were treated with a 10 μM DCFH-DA solution for 30 min and washed with PBS. The washed cells were fixed with a 4% paraformaldehyde solution for 5 min, and intracellular ROS fluorescence was observed using a DMi8 inverted microscope (Leica, Wetzlar, Germany).

[7] = tested on: phospho-JNK; test: LPS-induced phosphorylation of JNK in RAW 264.7 cells (Western blot); format: cell-based, murine; details: peptide 500 µM 2 h, LPS 0.1 μg/mL 15 min, densitometry relative to JNK, n = 3
Method: HaCaT (3.0 × 10^5 cells/well) and RAW 264.7 (1.5 × 10^5 cells/well) cells were seeded in the wells of a six-well plate. […] The cells were then washed with cold PBS and lysed in a cold lysis buffer. Cell debris was removed after centrifugation at 12,000× g for 30 min at 4 °C. Protein concentration was determined using the bicinchoninic acid (BCA) protein assay. […] The membranes were blocked with 5% skimmed milk in Tris-buffered saline–Tween (TBS-T) at room temperature for 1 h. After washing, the membranes were incubated overnight in respective primary antibody solutions (anti-phospho-ERK, anti-phospho-JNK, anti-phospho-p38, anti-collagen I, anti-GAPDH or anti-β-actin antibodies) at 4 °C. The membranes were washed with TBS-T and incubated with a horseradish peroxidase-conjugated secondary antibody solution for 1 h at room temperature. They were washed again with TBS-T and PBS and developed using an enhanced chemiluminescence reagent. Images of the immunoblots were scanned with an iBright™ CL1500 Imaging System (Thermo Fisher Scientific, Waltham, MA, USA). The band intensities of phospho-ERK, phospho-JNK, phospho-p38, and collagen I proteins were quantified by densitometric analysis using the ImageJ software 1.8.0 (National Institutes of Health, NIH, Bethesda, MD, USA). […] The levels of collagen I were normalized to those of GAPDH. Images of raw Western blots are shown in the Supplementary Data.

[8] = tested on: collagen type I alpha 1 chain (Col1a1) mRNA; test: Collagen I (Col1a1) mRNA level in HaCaT cells (RT-PCR); format: cell-based, human; details: peptide 500 μM, normalized to Gapdh, n = 3
Method: The peptide and control groups were pretreated with 500 and 0 μM of the peptide solution, respectively, for 2 h, followed by stimulation with 0.1 μg/mL of LPS for 24 h. Total cellular RNA was isolated using the RNeasy Mini Kit (Qiagen, Santa Clara, CA, USA). Total RNA was used to synthesize complementary DNA (cDNA) using the PrimeScript™ 1st strand cDNA synthesis kit (TaKaRa, Kusatsu, Japan). The sequences of oligonucleotide primers for amplifying inducible nitric oxide synthase (iNos), cyclooxygenase-2 (Cox-2), and collagen type I alpha 1 chain (Col1a1) synthesized from Bioneer (Daejeon, Republic of Korea) and glyceraldehyde-3-phosphate dehydrogenase (Gapdh) synthesized from Macrogen (Seoul, Republic of Korea) are listed in Table 1. […] The mRNA levels of iNos, Cox-2, and Col1a1 were normalized to that of Gapdh, which is a housekeeping gene. The mRNA levels were quantified using the 2^-ddCt method based on the Ct values.

[9] = tested on: collagen I (COL1A1) protein; test: Collagen I (COL1A1) protein level in HaCaT cells (Western blot); format: cell-based, human; details: peptide 500 µM, 24 h, Western blot densitometry normalized to GAPDH, n = 3
Method: (§1) HaCaT (3.0 × 10^5 cells/well) and RAW 264.7 (1.5 × 10^5 cells/well) cells were seeded in the wells of a six-well plate. HaCaT and RAW 264.7 cells were treated with the peptide solutions (500 µM) for 24 and 2 h, respectively, and then stimulated with LPS (0.1 μg/mL) for 15 min. The cells were then washed with cold PBS and lysed in a cold lysis buffer. Cell debris was removed after centrifugation at 12,000× g for 30 min at 4 °C. Protein concentration was determined using the bicinchoninic acid (BCA) protein assay. The four-times-concentrated protein-denaturing buffer (1.25 M Tris-HCl (pH 6.8), glycerol, SDS, 2-mercaptoethanol, and 0.4% bromophenol blue) was added to the cell lysate and the mixture was boiled at 100 °C for 5 min. Proteins were separated by electrophoresis on 10% (for MAPKs) or 12% (for collagen) sodium dodecyl sulfate-polyacrylamide gel and electroblotted onto polyvinylidene fluoride membranes. The membranes were blocked with 5% skimmed milk in Tris-buffered saline–Tween (TBS-T) at room temperature for 1 h. After washing, the membranes were incubated overnight in respective primary antibody solutions (anti-phospho-ERK, anti-phospho-JNK, anti-phospho-p38, anti-collagen I, anti-GAPDH or anti-β-actin antibodies) at 4 °C. The membranes were washed with TBS-T and incubated with a horseradish peroxidase-conjugated secondary antibody solution for 1 h at room temperature. They were washed again with TBS-T and PBS and developed using an enhanced chemiluminescence reagent. Images of the immunoblots were scanned with an iBright™ CL1500 Imaging System (Thermo Fisher Scientific, Waltham, MA, USA). The band intensities of phospho-ERK, phospho-JNK, phospho-p38, and collagen I proteins were quantified by densitometric analysis using the ImageJ software 1.8.0 (National Institutes of Health, NIH, Bethesda, MD, USA). To normalize for protein loading, antibodies against β-actin and GAPDH were used, and phospho-ERK 1/2, phospho-JNK, and phospho-p38 phosphorylation levels were expressed relative to those of […]. The levels of collagen I were normalized to those of GAPDH. Images of raw Western blots are shown in the Supplementary Data.

[10] = tested on: phospho-ERK 1/2; test: LPS-induced phosphorylation of ERK in RAW 264.7 cells (Western blot); format: cell-based, murine; details: peptide 500 µM 2 h, LPS 0.1 μg/mL 15 min, densitometry relative to ERK, n = 3
Method: as §1

[11] = tested on: phospho-p38; test: LPS-induced phosphorylation of p38 in RAW 264.7 cells (Western blot); format: cell-based, murine; details: peptide 500 µM 2 h, LPS 0.1 μg/mL 15 min, densitometry relative to p38, n = 3
Method: HaCaT (3.0 × 10^5 cells/well) and RAW 264.7 (1.5 × 10^5 cells/well) cells were seeded in the wells of a six-well plate. HaCaT and RAW 264.7 cells were treated with the peptide solutions (500 µM) for 24 and 2 h, respectively, and then stimulated with LPS (0.1 μg/mL) for 15 min. The cells were then washed with cold PBS and lysed in a cold lysis buffer. Cell debris was removed after centrifugation at 12,000× g for 30 min at 4 °C. Protein concentration was determined using the bicinchoninic acid (BCA) protein assay. The four-times-concentrated protein-denaturing buffer (1.25 M Tris-HCl (pH 6.8), glycerol, SDS, 2-mercaptoethanol, and 0.4% bromophenol blue) was added to the cell lysate and the mixture was boiled at 100 °C for 5 min. Proteins were separated by electrophoresis on 10% (for MAPKs) or 12% (for collagen) sodium dodecyl sulfate-polyacrylamide gel and electroblotted onto polyvinylidene fluoride membranes. The membranes were blocked with 5% skimmed milk in Tris-buffered saline–Tween (TBS-T) at room temperature for 1 h. […] The band intensities of phospho-ERK, phospho-JNK, phospho-p38, and collagen I proteins were quantified by densitometric analysis using the ImageJ software 1.8.0 (National Institutes of Health, NIH, Bethesda, MD, USA). […]

| IC50 [1] | Compound | ABTS radical scavenging activity [1] | Anti-oxidant Rank (ABTS radical scavenging activity rank) [1] | reduction of LPS-induced iNos mRNA level [3] | reduction of LPS-induced Cox-2 mRNA level [4] | further results |
| --- | --- | --- | --- | --- | --- | --- |
| 23.8 µM | O=C1O[C@H]([C@@H](O)CO)C(O)=C1O [L-ascorbic acid, reference compound] | 20% | 7 | – | – | – |
| – | COc1cc(C(=O)O)ccc1O [vanillic acid, reference compound] | – | – | – | – | DPPH radical scavenging activity (in words) [2]: weak antioxidant activity |
| – | glycyl-L-histidyl-L-lysine-Cu (II) [GHK-Cu, reference compound] | – | – | 45% | 24% | – |
| – | C[C@@H]1C[C@H]2[C@@H]3CCC4=CC(=O)C=C[C@]4(C)[C@@]3(F)[C@@H](O)C[C@]2(C)[C@@]1(O)C(=O)CO [DEX, Dexamethasone, reference compound] | – | – | approximately 80% | ~91% | decrease of p-JNK level [7]: markedly reduced; decrease of p-ERK level [10]: markedly reduced; decrease of p-p38 level [11]: markedly reduced |
| 16.4 µM | vanilloyl-QHGV [Va-QHGV] | 34% | 4 | did not significantly affect | 16% | DPPH radical scavenging activity (in words) [2]: did not exhibit antioxidant effects; decrease of p-ERK level [10]: 24%; increase of collagen I protein level [9]: 163% |
| 14.7 µM | γ-L-glutamyl-L-cysteinyl-glycine [Glutathione, reference compound] | – | 3 | – | – | – |

| Compound | IC50 [1] | ABTS radical scavenging activity [1] | Anti-oxidant Rank (ABTS radical scavenging activity rank) [1] | reduction of LPS-induced iNos mRNA level [3] | reduction of LPS-induced Cox-2 mRNA level [4] | further results |
| --- | --- | --- | --- | --- | --- | --- |
| galloyl-QHGV [Ga-QHGV] | 4.58 µM | 74% | 2 | 60% | 22% | cytotoxicity (in words) [5]: no cytotoxicity; decrease of intracellular ROS levels compared to the LPS-treated group [6]: reduced LPS-induced ROS levels to the greatest extent; decrease of p-JNK level [7]: 18%; increase of collagen I mRNA level compared with the negative control group [8]: 140%; increase of collagen I protein level [9]: 354% |
